The target in this assay is T1, KDM3A (Homo sapiens, UniProt Q9Y4C1).
T1 sequence (Q9Y4C1 1-1321): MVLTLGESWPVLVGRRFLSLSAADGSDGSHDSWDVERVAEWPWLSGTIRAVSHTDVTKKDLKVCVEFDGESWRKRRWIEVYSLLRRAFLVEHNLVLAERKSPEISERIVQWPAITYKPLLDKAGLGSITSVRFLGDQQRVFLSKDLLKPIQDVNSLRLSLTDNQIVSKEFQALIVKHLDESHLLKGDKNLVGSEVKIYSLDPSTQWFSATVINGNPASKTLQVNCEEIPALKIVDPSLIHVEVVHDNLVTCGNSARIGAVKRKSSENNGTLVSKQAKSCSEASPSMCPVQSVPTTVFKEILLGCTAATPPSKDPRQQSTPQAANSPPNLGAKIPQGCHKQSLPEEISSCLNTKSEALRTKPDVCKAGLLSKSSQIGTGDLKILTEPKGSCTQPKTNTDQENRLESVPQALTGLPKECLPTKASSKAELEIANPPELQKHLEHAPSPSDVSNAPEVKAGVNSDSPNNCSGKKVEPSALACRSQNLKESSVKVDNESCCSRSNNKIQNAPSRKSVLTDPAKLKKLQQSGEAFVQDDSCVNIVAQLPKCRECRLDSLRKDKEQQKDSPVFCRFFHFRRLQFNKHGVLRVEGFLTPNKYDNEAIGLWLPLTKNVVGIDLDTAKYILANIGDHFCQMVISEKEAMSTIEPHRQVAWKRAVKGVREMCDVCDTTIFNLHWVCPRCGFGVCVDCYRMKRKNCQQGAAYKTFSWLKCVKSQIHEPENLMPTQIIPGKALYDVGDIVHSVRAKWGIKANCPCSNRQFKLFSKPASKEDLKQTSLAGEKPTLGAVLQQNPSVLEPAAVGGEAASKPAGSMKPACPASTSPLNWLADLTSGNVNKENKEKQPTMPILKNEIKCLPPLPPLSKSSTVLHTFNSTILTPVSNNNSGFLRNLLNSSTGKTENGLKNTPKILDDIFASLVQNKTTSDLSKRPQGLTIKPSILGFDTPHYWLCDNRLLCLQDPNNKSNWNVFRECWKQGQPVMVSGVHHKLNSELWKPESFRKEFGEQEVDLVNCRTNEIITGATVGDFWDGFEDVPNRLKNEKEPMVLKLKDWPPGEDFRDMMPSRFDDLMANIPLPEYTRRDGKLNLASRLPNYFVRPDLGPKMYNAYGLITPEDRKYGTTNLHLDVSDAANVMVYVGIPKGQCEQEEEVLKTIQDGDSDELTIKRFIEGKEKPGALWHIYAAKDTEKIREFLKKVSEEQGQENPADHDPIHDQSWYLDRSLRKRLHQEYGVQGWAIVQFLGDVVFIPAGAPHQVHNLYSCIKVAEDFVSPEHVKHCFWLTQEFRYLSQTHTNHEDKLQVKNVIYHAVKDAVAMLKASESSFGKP
The experiment in a line: KDM3 AlphaScreen assay (Table 2, ASSAY 9). Conditions: for IC50: ASSAY 9. In kind it is biochemical. As to the method: AlphaScreen assays were performed in 384-well plate format using white AlphaPlate™ (PerkinElmer®, USA), and transfer of pre-diluted compound (100 nL) was performed using a Janus® Workstation (PerkinElmer®, USA). All subsequent steps were carried out in assay buffer (50 mM 4-(2-hydroxyethyl)-1-piperazineethanesulfonic acid (HEPES), pH 7.5, 0.1% (wt/vol) bovine serum albumin (BSA) and 0.01% (vol/vol) Tween®20). In brief, 10 μL of assay buffer containing demethylase enzyme (2 nM Final) was pre-incubated for 15 min with dilutions of compound. The enzyme reaction was initiated by the addition of substrate (5 μL) consisting of L-ascorbic acid (100 μM Final), […] (OG) (5 μM Final), FAS (10 μM Final) and histone H3(1-21)K9Me3-GGK Biotin (100 nM Final). The enzyme reaction was allowed to proceed for 30 minutes and was stopped by the addition of 5 μL of assay buffer containing ethylenediaminetetraacetic acid (EDTA) (40 mM) and NaCl (1,200 mM). The final concentration of DMSO was 1%. Streptavidin donor beads (0.08 mg/ml) and protein-A-conjugated acceptor beads (0.08 mg/ml) were preincubated for 1 h with antibody to methyl mark (300 ng/mL Final), and the presence of histone H3 product methyl mark was detected using the preincubated AlphaScreen™ beads (5 μL). Detection was allowed to proceed for 2 h at room temperature, and the assay plates were read on the EnVision® 2104 plate reader. Data were normalized to the (no-enzyme) control, and the IC50 values were determined via nonlinear regression curve fit using GraphPad Prism 7.
On the technique in general: In Alpha technology, singlet oxygen from a donor bead excites a nearby acceptor bead.

Molecules are shown by their SMILES.

What is called IC50 is the concentration that gives 50% inhibition. A low value points to higher potency. Take `COc1ccc(S(=O)(=O)Nc2ccc(F)cc2C(=O)N2CCC(Oc3ccc(-c4ccc(N(C)C)cc4)cn3)CC2)cc1OC` [KDM3-60]: half-maximal inhibition (IC50) required 35 µM.

On to `CN(C)c1ccc(CCC(=O)Nc2ccc(C(F)(F)F)cc2C(=O)N2CCC(Oc3ccc(-c4ccc(N(C)C)cc4)cn3)CC2)cc1` [KDM3-53, 3-(4-(dimethylamino)phenyl)-N-(2-(4-((5-(4-(dimethylamino)phenyl)pyridin-2-yl)oxy)piperidine-1-carbonyl)-4-(trifluoromethyl)phenyl)propanamide], for which 20 µM corresponded to half-maximal inhibition (IC50). Against the preceding compound, the IC50 is about 1.8-fold lower.

Compound `CN(C)c1ccc(-c2ccc(OC3CCN(C(=O)c4ccccc4OC(=O)c4ccccc4O)CC3)nc2)cc1` [JADA196, 2-(4-((5-(4-(dimethylamino)phenyl)pyridin-2-yl)oxy)piperidine-1-carbonyl)phenyl 2-hydroxybenzoate] had an IC50 of 16 µM. This IC50 and that of the compound before are within 1.5-fold of each other.

With `CN(C)c1ccc(CNc2ccc(F)cc2C(=O)N2CCN(Cc3ccc(N(C)C)cc3)CC2)cc1` [Compound 5, (2-((4-(dimethylamino)benzyl)amino)-5-fluorophenyl)(4-(4-(dimethylamino)benzyl)piperazin-1-yl)methanone], the “KDM3A inhibition, verdict in words on Table 2” value is listed as “potent KDM3A inhibitors” and the 50% inhibitory concentration (IC50) amounted to 7.65 µM.

These data come from US20220348563A1, “KDM INHIBITORS AND USES THEREOF” (DANA-FARBER CANCER INSTITUTE, INC., priority 2019, published 2022).
